Laboratory results: patent publication US8729082B2, “Substituted imidazoquinoxalines” (Bayer Intellectual Property GmbH, priority 2009, dated 2014)

molecular target: T1, human kinase Mps-1 (Homo sapiens, UniProt P33981); experiment: Mps-1 kinase assay (HTRF); assay type: biochemical; conditions: lowATP; mean; read-out: Mps1 lowATP mean IC50
T1 construct: N-terminally GST-tagged human full length recombinant Mps-1 kinase; purchased Invitrogen, Karslruhe, Germany PV4071
T1 sequence (P33981 1-857): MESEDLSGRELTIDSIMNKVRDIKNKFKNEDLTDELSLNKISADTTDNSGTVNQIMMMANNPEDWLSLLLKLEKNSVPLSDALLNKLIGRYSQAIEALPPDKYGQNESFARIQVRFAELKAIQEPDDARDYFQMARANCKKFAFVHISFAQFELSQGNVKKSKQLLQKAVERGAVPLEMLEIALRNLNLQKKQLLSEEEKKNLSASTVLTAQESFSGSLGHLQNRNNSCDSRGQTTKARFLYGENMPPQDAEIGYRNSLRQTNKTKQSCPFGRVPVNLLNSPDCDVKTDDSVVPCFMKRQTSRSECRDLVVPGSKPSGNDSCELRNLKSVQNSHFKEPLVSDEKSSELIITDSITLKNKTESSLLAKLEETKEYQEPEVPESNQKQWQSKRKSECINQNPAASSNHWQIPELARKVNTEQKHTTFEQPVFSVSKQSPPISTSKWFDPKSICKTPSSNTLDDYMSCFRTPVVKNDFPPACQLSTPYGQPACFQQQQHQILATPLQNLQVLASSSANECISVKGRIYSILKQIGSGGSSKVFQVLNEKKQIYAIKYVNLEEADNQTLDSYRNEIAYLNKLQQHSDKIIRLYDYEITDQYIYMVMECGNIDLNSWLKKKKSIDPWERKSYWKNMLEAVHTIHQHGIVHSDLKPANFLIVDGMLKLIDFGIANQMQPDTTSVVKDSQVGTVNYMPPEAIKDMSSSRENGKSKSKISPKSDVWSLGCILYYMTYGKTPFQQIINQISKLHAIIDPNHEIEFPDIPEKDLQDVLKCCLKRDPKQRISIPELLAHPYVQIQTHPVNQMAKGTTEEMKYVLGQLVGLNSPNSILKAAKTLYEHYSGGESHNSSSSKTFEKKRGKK
Procedure: The human kinase Mps-1 phosphorylates a biotinylated substrate peptide. Detection of the phosphorylated product is achieved by homogenous time-resolved fluorescence resonance energy transfer (HTRF) from Europium-labelled anti-phospho-Serine/Threonine antibody as donor to streptavidin labelled with cross-linked allophycocyanin (SA-XLent) as acceptor. Compounds are tested for their inhibition of the kinase activity.
N-terminally GST-tagged human full length recombinant Mps-1 kinase (purchased from Invitrogen, Karslruhe, Germany, cat. no PV4071) was used. As substrate for the kinase reaction a biotinylated peptide of the amino-acid sequence PWDPDDADITEILG (C-terminus in amide form, purchased from Biosynthan GmbH, Berlin) was used.
For the assay 50 nl of a 100-fold concentrated solution of the test compound in DMSO was pipetted into a black low volume 384 well microtiter plate (Greiner Bio-One, Frickenhausen, Germany), 2 μl of a solution of Mps-1 in assay buffer [0.1 mM sodium-ortho-vanadate, 10 mM MgCl2, 2 mM DTT, 25 mM Hepes pH 7.7, 0.05% BSA, 0.001% Pluronic F-127] were added and the mixture was incubated for 15 min at 22° C. to allow pre-binding of the test compounds to Mps-1 before the start of the kinase reaction. Then the kinase reaction was started by the addition of 3 μl of a solution of 16.7 μM ATP and 1.67 μM peptide in assay buffer and the resulting mixture was incubated for a reaction time of 60 min at 22° C. The concentration of Mps-1 in the assay was adjusted to the activity of the enzyme lot and was chosen appropriate to have the assay in the linear range, typical enzyme concentrations were in the range of about 1 nM (final conc. in the 5 μl assay volume). The reaction was stopped by the addition of 3 μl of a solution of HTRF detection reagents (100 mM Hepes pH 7.4, 0.1% BSA, 40 mM EDTA, 140 nM Streptavidin-XLent [#61GSTXLB, Fa. Cis Biointernational, Marcoule, France], 1.5 nM anti-phospho(Ser/Thr)-Europium-antibody [#AD0180, PerkinElmer LAS, Rodgau-Jügesheim, Germany].
The resulting mixture was incubated 1 h at 22° C. to allow the binding of the phosphorylated peptide to the anti-phospho(Ser/Thr)-Europium-antibody. Subsequently the amount of phosphorylated substrate was evaluated by measurement of the resonance energy transfer from the Europium-labelled anti-phospho(Ser/Thr) antibody to the Streptavidin-XLent. Therefore, the fluorescence emissions at 620 nm and 665 nm after excitation at 350 nm was measured in a HTRF reader, e.g. a Rubystar (BMG Labtechnologies, Offenburg, Germany) or a Viewlux (PerkinElmer LAS, Rodgau-Jügesheim, Germany). The ratio of the emissions at 665 nm and at […] was taken as the measure for the amount of phosphorylated substrate. The data were normalised (enzyme reaction without inhibitor=0% inhibition, all other assay components but no enzyme=100% inhibition).

SMILES | IC50 [nM]
Cc1cc2nc(NCCCNC(=O)OC(C)(C)C)c3ncc(-c4ccc(C(=O)NC5CC5)c(Cl)c4)n3c2cc1C [Example 2-197, tert-butyl [3-({1-[3-chloro-4-(cyclopropylcarbamoyl)phenyl]-7,8-dimethylimidazo[1,2-a]quinoxalin-4-yl}amino)propyl]carbamate] | 50.5
COCCNc1nc2cc(F)c(F)cc2n2c(-c3ccc(C(=O)NC4CC4)cc3)cnc12 [Example 2-94, N-cyclopropyl-4-{7,8-difluoro-4-[(2-methoxyethyl)amino]imidazo[1,2-a]quinoxalin-1-yl}benzamide] | 161
NS(=O)(=O)CCNc1nc2cc(F)c(F)cc2n2c(-c3ccc(C(=O)NC4CC4)c(Cl)c3)cnc12 [Example 2-143, 2-chloro-N-cyclopropyl-4-{7,8-difluoro-4-[(2-sulfamoylethyl)amino]imidazo[1,2-a]quinoxalin-1-yl}benzamide] | 1240
CC(C)CNc1nc2ccccc2n2c(-c3ccc(C(=O)NC4CC4C)cc3)cnc12 (stereo not shown) [Example 3-29, N-(2-methylcyclopropyl)-4-{4-[(2-methylpropyl)amino]imidazo[1,2-a]quinoxalin-1-yl}benzamide] | 13.8
CC(C)CNc1nc2ccccc2n2c(-c3ccc(C(=O)NC4(C#N)CC4)cc3)cnc12 [Example 3-22, N-(1-cyanocyclopropyl)-4-{4-[(2-methylpropyl)amino]imidazo[1,2-a]quinoxalin-1-yl}benzamide] | 214
N#Cc1ccc2c(c1)nc(NCCO)c1ncc(-c3ccc(C(=O)NC4CC4)c(Cl)c3)n12 [Example 2-235, 2-chloro-4-{7-cyano-4-[(2-hydroxyethyl)amino]imidazo[1,2-a]quinoxalin-1-yl}-N-cyclopropylbenzamide] | 3450
O=C(NC1CC1)c1ccc(-c2cnc3c(NCc4cccs4)nc4cc(F)c(F)cc4n23)cc1 [Example 2-98, N-cyclopropyl-4-{7,8-difluoro-4-[(thiophen-2-ylmethyl)amino]imidazo[1,2-a]quinoxalin-1-yl}benzamide] | 62.2
N#Cc1ccc2c(c1)nc(NCCCN1CCOCC1)c1ncc(-c3ccc(C(=O)NC4CC4)cc3)n12 [Example 2-205, 4-(7-cyano-4-{[3-(morpholin-4-yl)propyl]amino}imidazo[1,2-a]quinoxalin-1-yl)-N-cyclopropylbenzamide] | 413
Cc1cc2nc(NCc3ccn(C)n3)c3ncc(-c4ccc(C(=O)NC5CC5)cc4)n3c2cc1C [Example 2-156, N-cyclopropyl-4-(7,8-dimethyl-4-{[(1-methyl-1H-pyrazol-3-yl)methyl]amino}imidazo[1,2-a]quinoxalin-1-yl)benzamide] | 8.49
CC(C)CNc1nc2ccccc2n2c(-c3cccc(O)c3)cnc12 [Example 1-36, 3-{4-[(2-methylpropyl)amino]imidazo[1,2-a]quinoxalin-1-yl}phenol] | 18600
CC(C)CNc1nc2ccccc2n2c(-c3cccnc3F)cnc12 [Example 1-14, 1-(2-fluoropyridin-3-yl)-N-(2-methylpropyl)imidazo[1,2-a]quinoxalin-4-amine] | 9730
CC(C)CNc1nc2ccccc2n2c(-c3ccc(C(=O)N(C)C)cc3)cnc12 [Example 1-9, N,N-dimethyl-4-{4-[(2-methylpropyl)amino]imidazo[1,2-a]quinoxalin-1-yl}benzamide] | 15200
CC(C)CNc1nc2cc(F)c(F)cc2n2c(-c3ccc(C(=O)NC4CC4)c(Cl)c3)cnc12 [Example 2-137, 2-chloro-N-cyclopropyl-4-{7,8-difluoro-4-[(2-methylpropyl)amino]imidazo[1,2-a]quinoxalin-1-yl}benzamide] | 391

Continued by falling IC50, values first:

IC50 [nM] | SMILES
17600 | CNC(=O)Nc1ccc(-c2cnc3c(NCc4ccccc4F)nc4ccc(F)cc4n23)cc1 [Example 2-62, 1-(4-{8-fluoro-4-[(2-fluorobenzyl)amino]imidazo[1,2-a]quinoxalin-1-yl}phenyl)-3-methylurea]
11900 | CC(C)CNc1nc2ccccc2n2c(-c3ccc(C(=O)NCCN4CCNC4=O)cc3)cnc12 [Example 3-18, 4-{4-[(2-methylpropyl)amino]imidazo[1,2-a]quinoxalin-1-yl}-N-[2-(2-oxoimidazolidin-1-yl)ethyl]benzamide]
8190 | Cc1ccc(-c2cnc3c(NCC(C)C)nc4ccccc4n23)cn1 [Example 1-45, N-(2-methylpropyl)-1-(6-methylpyridin-3-yl)imidazo[1,2-a]quinoxalin-4-amine]
4080 | CNC(=O)Nc1ccc(-c2cnc3c(NCc4cccnc4)nc4cc(F)c(F)cc4n23)cc1 [Example 2-122, 1-(4-{7,8-difluoro-4-[(pyridin-3-ylmethyl)amino]imidazo[1,2-a]quinoxalin-1-yl}phenyl)-3-methylurea]
3780 | N#Cc1ccc2c(c1)nc(NCCCO)c1ncc(-c3ccc(C(=O)NC4CC4)c(Cl)c3)n12 [Example 2-242, 2-chloro-4-{7-cyano-4-[(3-hydroxypropyl)amino]imidazo[1,2-a]quinoxalin-1-yl}-N-cyclopropylbenzamide]
3550 | CNC(=O)Nc1ccc(-c2cnc3c(NCc4ccncc4)nc4cc(F)c(F)cc4n23)cc1 [Example 2-123, 1-(4-{7,8-difluoro-4-[(pyridin-4-ylmethyl)amino]imidazo[1,2-a]quinoxalin-1-yl}phenyl)-3-methylurea]
3130 | O=C(NC1CC1)c1ccc(-c2cnc3c(NCCCO)nc4cc(F)c(F)cc4n23)cc1Cl [Example 2-130, 2-chloro-N-cyclopropyl-4-{7,8-difluoro-4-[(3-hydroxypropyl)amino]imidazo[1,2-a]quinoxalin-1-yl}benzamide]
1420 | CC(C)CNc1nc2ccccc2n2c(-c3ccc(C(=O)NC4(c5ccccn5)CC4)cc3)cnc12 [Example 3-25, 4-{4-[(2-methylpropyl)amino]imidazo[1,2-a]quinoxalin-1-yl}-N-[1-(pyridin-2-yl)cyclopropyl]benzamide]
367 | CC(C)CNc1nc2ccccc2n2c(-c3ccc(C(=O)NC4CC4)c(Cl)c3)cnc12 [Example 1-47, 2-chloro-N-cyclopropyl-4-{4-[(2-methylpropyl)amino]imidazo[1,2-a]quinoxalin-1-yl}benzamide]
132 | Cc1cccc(CNc2nc3ccccc3n3c(-c4ccc(C(=O)NC5CC5)cc4)cnc23)c1 [Example 2-4, N-cyclopropyl-4-{4-[(3-methylbenzyl)amino]imidazo[1,2-a]quinoxalin-1-yl}benzamide]
127 | O=C(NC1CC1)c1ccc(-c2cnc3c(NCCN4CCOCC4)nc4ccccc4n23)cc1 [Example 2-24, N-cyclopropyl-4-(4-{[2-(morpholin-4-yl)ethyl]amino}imidazo[1,2-a]quinoxalin-1-yl)benzamide]
61.4 | O=C(NC1CC1)c1ccc(-c2cnc3c(NCc4ccc5c(c4)OCO5)nc4ccccc4n23)cc1 [Example 2-28, 4-{4-[(1,3-benzodioxol-5-ylmethyl)amino]imidazo[1,2-a]quinoxalin-1-yl}-N-cyclopropylbenzamide]
